The test system of assay [1] is MM1S cells. The assay is described as follows: Half inhibitory concentration (IC50) on BET-expressing tumor cells, CCK-8, MM1S. Type of assay: cell-based. To be noted: Homo sapiens, MM1.S, 48/72 h, read-out: IC50 (nM)/MM1S cell line. The protocol:
BET-expressing cells MV-4-11 cells (human B granulocytic leukemia cells), MDA-MB-231 cells (human breast cancer cells), MDA-MB-468 cells (human breast cancer cells), MDA-MB-453 Cells (human breast cancer cells), MM1S cells (myeloma (immunoglobulin A lambda), B lymphoblasts) and SR cells (human large cell immunoblast lymphoma) were purchased from the American Type Culture Collection (ATCC).
The cells used in this present disclosure were cultured in a 37° C. incubator containing 5% CO2. The complete cell culture medium was RPMI 1640/IMDM/DMEM medium with 10% fetal bovine serum, and the final concentrations of penicillin and streptomycin were 100 U/mL, respectively. All cells were tested negative for mycoplasma with mycoplasma detection kit before the experiment.
Determination of the Half Inhibitory Concentration (IC50) of PROTAD Compounds on Tumor Cells
MV-411 cells, MM1S cells and SR cells were seeded in 100 μL IMDM/RPMI1640/DMEM complete medium at a density of 15000/10000 cells/well; MDA-MB-231 cells, MDA-MB-468 cells, and MDA-MB453 cells were seeded in 100 μL IMDM/RPMI1640/DMEM complete medium at a density of 3000/5000 cells/well, respectively. 100 μL of the inoculated cells were treated with 0.5 μL diluted PROTAD compounds of the present disclosure to be tested at 10 successively decreasing concentrations (starting at the highest concentration of 10 μM; 5-fold serial dilutions). After the cells were treated with the tested drugs 48/72 h, the cell viability was determined according to the CCK-8 reagent manual. The negative control was DMSO, and the positive control was a commercial inhibitor. After CCK-8 treatment for 2 h, the value of O.D.450 was measured using a microplate reader.

Assay [2] relates to MV-4-11 cells. As to the kind of experiment: Half inhibitory concentration (IC50) on BET-expressing tumor cells, CCK-8, MV-4-11. The settings on record: Homo sapiens, MV4-11, read-out: IC50 (nM)/MV-4-11 cell line, MV-4-11 cells, 48/72 h, CCK-8.
Assay [3] deals with ALK protein (Homo sapiens, UniProt Q9UM73). As to the kind of experiment: Western-blot half degradation concentration (DC50) of ALK protein in H3122 cells. The class given is cell-based. To be noted: 24 h drug treatment, read-out: DC50 (nM)/ H3122 cell line. The protocol:
(§1) ALK-positive SR cells (human large cell immunoblastic lymphoma) were purchased from the American Type Culture Collection (ATCC); H3122 cells (human non-small cell lung cancer) were from the Shanghai University of Science and Technology Lin Haifan's research group.
(§2) The cells used in this present disclosure were cultured in a 37° C. incubator containing 5% CO2.
DC50 (drug concentration corresponding to protein degradation to 50%) calculation: according to the gray value of the corresponding Western blotting band after drug treatment, fitting the relationship curve between drug concentration and gray value to calculate the drug concentration range corresponding to half of the gray value.

For assay [4], the system named is SR cells. The assay is described as follows: Half inhibitory concentration (IC50) on ALK-positive SR cell proliferation (CCK-8). The class given is cell-based. To be noted: Homo sapiens; SR cells, 72 h drug treatment, CCK-8; read-out: IC50 (nM)/ SR cell line. The protocol:
as §1, §2
SR cells were seeded in 100 μL RPMI1640 complete medium at a density of 10,000 cells/well. 100 μL of the inoculated cells were treated with 0.5 μL diluted PROTAD compound of the present disclosure to be tested at 10 successively decreasing concentrations (starting at the highest concentration of 10 μM; 5-fold serial dilutions) After the cells were treated with the drug for 72 h, cell viability was determined according to the CCK-8 reagent operating instructions. The negative control was DMSO, and the positive control was a commercial inhibitor. After CCK-8 treatment for 2 h, the value of O.D.450 was measured using a microplate reader.

ALK protein, sequence (Q9UM73 with tags, fused parts or gaps): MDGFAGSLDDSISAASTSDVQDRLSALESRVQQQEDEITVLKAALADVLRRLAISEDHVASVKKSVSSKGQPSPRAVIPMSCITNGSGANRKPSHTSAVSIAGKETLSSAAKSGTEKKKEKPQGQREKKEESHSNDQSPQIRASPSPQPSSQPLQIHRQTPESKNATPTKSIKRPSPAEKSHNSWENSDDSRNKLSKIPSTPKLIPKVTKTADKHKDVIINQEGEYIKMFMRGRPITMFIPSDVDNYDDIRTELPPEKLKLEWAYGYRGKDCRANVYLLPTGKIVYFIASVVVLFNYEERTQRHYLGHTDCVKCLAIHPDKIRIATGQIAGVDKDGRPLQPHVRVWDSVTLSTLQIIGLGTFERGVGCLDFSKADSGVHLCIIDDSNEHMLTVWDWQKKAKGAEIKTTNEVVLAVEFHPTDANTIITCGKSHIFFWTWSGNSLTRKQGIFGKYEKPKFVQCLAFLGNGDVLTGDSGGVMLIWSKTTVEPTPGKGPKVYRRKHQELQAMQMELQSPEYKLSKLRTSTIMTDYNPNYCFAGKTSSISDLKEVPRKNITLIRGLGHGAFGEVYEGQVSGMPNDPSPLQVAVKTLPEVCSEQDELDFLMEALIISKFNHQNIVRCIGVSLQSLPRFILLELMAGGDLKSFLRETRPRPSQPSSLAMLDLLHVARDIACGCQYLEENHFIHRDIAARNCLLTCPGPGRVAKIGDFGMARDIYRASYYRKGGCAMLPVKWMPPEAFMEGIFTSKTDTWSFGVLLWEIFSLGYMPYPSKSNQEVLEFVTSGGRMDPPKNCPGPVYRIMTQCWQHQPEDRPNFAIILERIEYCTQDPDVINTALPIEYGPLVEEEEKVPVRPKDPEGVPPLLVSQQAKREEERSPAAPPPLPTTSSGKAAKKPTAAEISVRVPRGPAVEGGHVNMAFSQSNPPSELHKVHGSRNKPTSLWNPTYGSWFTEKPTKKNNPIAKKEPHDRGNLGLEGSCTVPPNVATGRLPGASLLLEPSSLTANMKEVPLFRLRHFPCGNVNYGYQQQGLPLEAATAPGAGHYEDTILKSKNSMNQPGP

In the case of `Cc1sc2c(c1C)C(c1ccc(Cl)cc1)=N[C@@H](CC(=O)NCCCCNC(=O)CSc1cccc3c1CN(C1CCC(=O)NC1=O)C3=O)c1nnc(C)n1-2` (stereo partly drawn) [SIAIS213094, 2-((S)-4-(4-chlorophenyl)-2,3,9-trimethyl-6H-thieno[3,2-f][1,2,4]triazolo[4,3-a][1,4]diazepin-6-yl)-N-(4-(2-((2-(2,6-dioxopiperidin-3-yl)-1-oxoisoindolin-4-yl)thio)acetamido)butyl)acetamide], the IC50 in assay [1] came out at 42.5 nM; in assay [2], 4.9 ± 0.8 nM.

Regarding `Cc1sc2c(c1C)C(c1ccc(Cl)cc1)=N[C@@H](CC(=O)NCCOCCOCCSc1cccc3c1CN(C1CCC(=O)NC1=O)C3=O)c1nnc(C)n1-2` (stereo partly drawn) [SIAIS213072, 2-((S)-4-(4-chlorophenyl)-2,3,9-trimethyl-6H-thieno[3,2-f][1,2,4]triazolo[4,3-a][1,4]diazepin-6-yl)-N-(2-(2-(2-((2-(2,6-dioxopiperidin-3-yl)-1-oxoisoindolin-4-yl)thio)ethoxy)ethoxy)ethyl)acetamide], the results for the IC50 in assay [1] and in assay [2] were 3.03 nM and 0.5 ± 0.1 nM, respectively.

For `COc1cc(N2CCN(C(=O)CSc3cccc4c3C(=O)N(C3CCC(=O)NC3=O)C4=O)CC2)ccc1Nc1ncc(Cl)c(Nc2ccccc2P(C)(C)=O)n1` (stereo not shown) [SIAIS1197113, 4-((2-(4-(4-((5-chloro-4-((2-(dimethylphosphoryl)phenyl)amino)pyrimidin-2-yl)amino)-3-methoxyphenyl)piperazin-1-yl)-2-oxoethyl)thio)-2-(2,6-dioxopiperidin-3-yl)isoindoline-1,3-dione], the DC50 in assay [3] stood at 100 nM. The IC50 in assay [4] came to 23.6 ± 19.4 nM.

Take `COc1cc(N2CCC(NC(=O)CCCCCCSc3cccc4c3C(=O)N(C3CCC(=O)NC3=O)C4=O)CC2)ccc1Nc1ncc(Cl)c(Nc2ccccc2P(C)(C)=O)n1` (stereo not shown) [SIAIS164142, N-(1-(4-((5-chloro-4-((2-(dimethylphosphoryl)phenyl)amino)pyrimidin-2-yl)amino)-3-methoxyphenyl)piperidin-4-yl)-7-((2-(2,6-dioxopiperidin-3-yl)-1,3-dioxoisoindolin-4-yl)thio)heptanamide]: the DC50 in assay [3] was 50 nM. Moreover, the IC50 in assay [4] is 6.4 ± 4 nM.

For the compound `COc1cc(N2CCC(NC(=O)CSc3cccc4c3C(=O)N(C3CCC(=O)NC3=O)C4=O)CC2)ccc1Nc1ncc(Cl)c(Nc2ccccc2P(C)(C)=O)n1` (stereo not shown) [SIAIS164137, N-(1-(4-((5-chloro-4-((2-(dimethylphosphoryl)phenyl)amino)pyrimidin-2-yl)amino)-3-methoxyphenyl)piperidin-4-yl)-2-((2-(2,6-dioxopiperidin-3-yl)-1,3-dioxoisoindolin-4-yl)thio)acetamide], in assay [3], the DC50 stood at 500 nM. Moreover, in assay [4], the IC50 is 16.8 ± 5.7 nM.

`COc1cc(N2CCN(C(=O)CCCCSc3cccc4c3C(=O)N(C3CCC(=O)NC3=O)C4=O)CC2)ccc1Nc1ncc(Cl)c(Nc2ccccc2P(C)(C)=O)n1` (stereo not shown) [SIAIS1197119, 4-((5-(4-(4-((5-chloro-4-((2-(dimethylphosphoryl)phenyl)amino)pyrimidin-2-yl)amino)-3-methoxyphenyl)piperazin-1-yl)-5-oxopentyl)thio)-2-(2,6-dioxopiperidin-3-yl)isoindoline-1,3-dione]: the DC50 in assay [3] amounted to 500 nM. Besides, the IC50 in assay [4] was 13.2 ± 2.6 nM.

Regarding `COc1cc(N2CCN(C(=O)CCSc3cccc4c3C(=O)N(C3CCC(=O)NC3=O)C4=O)CC2)ccc1Nc1ncc(Cl)c(Nc2ccccc2P(C)(C)=O)n1` (stereo not shown) [SIAIS1197115, 4-((3-(4-(4-((5-chloro-4-((2-(dimethylphosphoryl)phenyl)amino)pyrimidin-2-yl)amino)-3-methoxyphenyl)piperazin-1-yl)-3-oxopropyl)thio)-2-(2,6-dioxopiperidin-3-yl)isoindoline-1,3-dione], the DC50 in assay [3] was found to be 500 nM. The IC50 in assay [4] amounted to 42 ± 29.3 nM.

In the case of `Cc1sc2c(c1C)C(c1ccc(Cl)cc1)=N[C@@H](CC(=O)NCCOCCOCCSc1cccc3c1C(=O)N(C1CCC(=O)NC1=O)C3=O)c1nnc(C)n1-2` (stereo partly drawn) [SIAIS213070, 2-((S)-4-(4-chlorophenyl)-2,3,9-trimethyl-6H-thieno[3,2-f][1,2,4]triazolo[4,3-a][1,4]diazepin-6-yl)-N-(2-(2-(2-((2-(2,6-dioxopiperidin-3-yl)-1,3-dioxoisoindolin-4-yl)thio)ethoxy)ethoxy)ethyl)acetamide], the IC50 stood at 12.8 nM in assay [1] and 2 ± 0.4 nM in assay [2].

For the compound `COc1cc(N2CCC(NC(=O)CCCSc3cccc4c3C(=O)N(C3CCC(=O)NC3=O)C4=O)CC2)ccc1Nc1ncc(Cl)c(Nc2ccccc2P(C)(C)=O)n1` (stereo not shown) [SIAIS164139, N-(1-(4-((5-chloro-4-((2-(dimethylphosphoryl)phenyl)amino)pyrimidin-2-yl)amino)-3-methoxyphenyl)piperidin-4-yl)-4-((2-(2,6-dioxopiperidin-3-yl)-1,3-dioxoisoindolin-4-yl)thio)butanamide], the DC50 in assay [3] worked out at 500 nM. Also, the IC50 in assay [4] amounted to 11.6 ± 6 nM.

For `COc1cc(N2CCC(NC(=O)CCSc3cccc4c3C(=O)N(C3CCC(=O)NC3=O)C4=O)CC2)ccc1Nc1ncc(Cl)c(Nc2ccccc2P(C)(C)=O)n1` (stereo not shown) [SIAIS164138, N-(1-(4-((5-chloro-4-((2-(dimethylphosphoryl)phenyl)amino)pyrimidin-2-yl)amino)-3-methoxyphenyl)piperidin-4-yl)-3-((2-(2,6-dioxopiperidin-3-yl)-1,3-dioxoisoindolin-4-yl)thio)propanamide], the DC50 in assay [3] was determined as 100 nM. Besides, the IC50 in assay [4] amounted to 24.1 ± 17.5 nM.

With `COc1cc(N2CCN(C(=O)CCCCCCSc3cccc4c3C(=O)N(C3CCC(=O)NC3=O)C4=O)CC2)ccc1Nc1ncc(Cl)c(Nc2ccccc2P(C)(C)=O)n1` (stereo not shown) [SIAIS1197159, 4-((7-(4-(4-((5-chloro-4-((2-(dimethylphosphoryl)phenyl)amino)pyrimidin-2-yl)amino)-3-methoxyphenyl)piperazin-1-yl)-7-oxoheptyl)thio)-2-(2,6-dioxopiperidin-3-yl)isoindoline-1,3-dione], the DC50 in assay [3] turned out to be 500 nM. For the same compound, in assay [4], the IC50 worked out at 10 ± 5.7 nM.

Regarding `COc1cc(N2CCN(C(=O)CCCSc3cccc4c3C(=O)N(C3CCC(=O)NC3=O)C4=O)CC2)ccc1Nc1ncc(Cl)c(Nc2ccccc2P(C)(C)=O)n1` (stereo not shown) [SIAIS1197117, 4-((4-(4-(4-((5-chloro-4-((2-(dimethylphosphoryl)phenyl)amino)pyrimidin-2-yl)amino)-3-methoxyphenyl)piperazin-1-yl)-4-oxobutyl)thio)-2-(2,6-dioxopiperidin-3-yl)isoindoline-1,3-dione], the DC50 in assay [3] is 500 nM. For the same compound, the IC50 in assay [4] came to 16.9 ± 12 nM.

Consider `Cc1sc2c(c1C)C(c1ccc(Cl)cc1)=N[C@@H](CC(=O)NCCCCNC(=O)CSc1cccc3c1C(=O)N(C1CCC(=O)NC1=O)C3=O)c1nnc(C)n1-2` (stereo partly drawn) [SIAIS213075, 2-((S)-4-(4-chlorophenyl)-2,3,9-trimethyl-6H-thieno[3,2-f][1,2,4]triazolo[4,3-a][1,4]diazepin-6-yl)-N-(4-(2-((2-(2,6-dioxopiperidin-3-yl)-1,3-dioxoisoindolin-4-yl)thio)acetamido)butyl)acetamide], for which the IC50 in assay [1] was found to be 96.1 nM; in assay [2], 6.5 ± 2.5 nM.

With `COc1cc(N2CCC(NC(=O)CCCCSc3cccc4c3C(=O)N(C3CCC(=O)NC3=O)C4=O)CC2)ccc1Nc1ncc(Cl)c(Nc2ccccc2P(C)(C)=O)n1` (stereo not shown) [SIAIS164140, N-(1-(4-((5-chloro-4-((2-(dimethylphosphoryl)phenyl)amino)pyrimidin-2-yl)amino)-3-methoxyphenyl)piperidin-4-yl)-5-((2-(2,6-dioxopiperidin-3-yl)-1,3-dioxoisoindolin-4-yl)thio)pentanamide], in assay [3], the DC50 came out at 500 nM. Also, the IC50 in assay [4] worked out at 8.7 ± 4.9 nM.

(Values after US12226424B2, “Target protein degradation compounds, their anti-tumor use, their intermediates and use of intermediates” (ShanghaiTech University, priority 2018, dated 2025).)
